Reference: patent publication US9044491B2, “Method for improving blood flow using stilbenoid derivatives” (The Board of Trustees of the University of Arkansas, priority 2010, dated 2015)
Where two headings read alike, the source gives them in different places.

Assays:
human CB2 = target: T1, human CB2 (Homo sapiens, UniProt P34972); assay: CB2 binding, 3H-CP 55,940 displacement in CHO-hCB2 membranes; conditions: 0.2 nM 3H-CP 55,940
T1 construct: expressed in transfected cells; host or cells: CHO cells stably transformed with human CB2
Procedure: (§1) Membrane preparations were prepared from mouse brain to examine CB1 binding. For CB2 binding, membrane preparations were prepared from CHO cells stably transformed with human CB2.

CB1 receptors [1] = target: T2, CB1 receptors (Mus musculus, UniProt P47746); type: biochemical
T2 construct: from tissue; host or cells: mouse brain membranes

[2] = system: CLP or Control (Sham) mice; assay: Renal arterial blood flow by Doppler flow probe; type: in vivo, mouse; conditions: CPL-treated mice
Excerpt: Under isoflurane anesthesia, the right kidney was exposed by flank incision and the renal artery and vein were carefully dissected from surrounding tissue with Dumont-5 forceps. The renal artery was isolated from the vein and a Transonic Systems (Ithaca, N.Y.) 0.5 PSL renal artery Doppler flow probe was positioned around the renal artery. The probe was calibrated in water using the zero and scale settings on the TS420 flowmeter (Transonic Systems). […] Body temperature was maintained at 36 to 37° C. with a heating lamp. Data were expressed in ml/min/g kidney weight.
Renal blood flow was measured essentially as described above in Example 10 following CPL surgery or control treatment (no surgery). CPL-treated mice were administered 10 mg/kg of resveratrol, 2.5 mg/kg of resveratrol-3-sulfate, or vehicle. […] In fact, resveratrol-3-sulfate produced the same degree of reversal at 25% of the dose of resveratrol.

human UGT1A1 = target: T3, human UGT1A1 (Homo sapiens, UniProt P22309); assay: Glucuronidation by recombinant human UGT1A1 (activity and kinetic constants)
T3 sequence (P22309 26-533): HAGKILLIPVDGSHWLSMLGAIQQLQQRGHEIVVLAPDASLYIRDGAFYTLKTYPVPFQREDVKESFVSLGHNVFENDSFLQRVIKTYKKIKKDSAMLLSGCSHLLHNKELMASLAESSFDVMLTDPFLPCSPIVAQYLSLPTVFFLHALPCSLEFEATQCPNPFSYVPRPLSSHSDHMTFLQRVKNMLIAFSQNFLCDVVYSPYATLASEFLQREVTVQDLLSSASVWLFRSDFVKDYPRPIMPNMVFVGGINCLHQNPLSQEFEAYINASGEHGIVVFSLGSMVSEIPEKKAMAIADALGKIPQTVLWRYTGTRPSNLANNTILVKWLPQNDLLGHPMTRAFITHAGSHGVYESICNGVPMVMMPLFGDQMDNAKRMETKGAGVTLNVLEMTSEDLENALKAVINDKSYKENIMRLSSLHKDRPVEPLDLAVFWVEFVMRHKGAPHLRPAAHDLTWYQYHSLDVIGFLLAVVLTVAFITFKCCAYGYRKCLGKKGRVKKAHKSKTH
Procedure: (§2) Eight human recombinant UGT1A isoforms (UGT1A1, 1A3, 1A4, 1A6, 1A7, 1A8, 1A9, and 1A10; 5 μg) expressed as His-tag proteins in baculovirus-infected Sf9 insect cells and human liver microsomes (from one donor; HL2; 50 μg) and human intestinal microsomes (from two donors; HI36 and HI41; 50 μg) were evaluated for their ability to glucuronidate these four compounds. The concentrations of the substrate and co-substrate (i.e., UDP-GlcUA) were 250 μM and 4 mM, respectively. Glucuronidation products were analyzed by HPLC and LCMS/MS.
(§3) The kinetic constants of the glucuronidation reactions using recombinant human UGT1A1 and UGT1A10 were determined by measuring the enzyme activity in the presence of increasing concentrations of substrate (see FIG. 2).

human UGT1A10 = target: T4, human UGT1A10 (Homo sapiens, UniProt Q9HAW8); assay: Glucuronidation by recombinant human UGT1A10 (activity and kinetic constants)
T4 sequence (Q9HAW8 26-530): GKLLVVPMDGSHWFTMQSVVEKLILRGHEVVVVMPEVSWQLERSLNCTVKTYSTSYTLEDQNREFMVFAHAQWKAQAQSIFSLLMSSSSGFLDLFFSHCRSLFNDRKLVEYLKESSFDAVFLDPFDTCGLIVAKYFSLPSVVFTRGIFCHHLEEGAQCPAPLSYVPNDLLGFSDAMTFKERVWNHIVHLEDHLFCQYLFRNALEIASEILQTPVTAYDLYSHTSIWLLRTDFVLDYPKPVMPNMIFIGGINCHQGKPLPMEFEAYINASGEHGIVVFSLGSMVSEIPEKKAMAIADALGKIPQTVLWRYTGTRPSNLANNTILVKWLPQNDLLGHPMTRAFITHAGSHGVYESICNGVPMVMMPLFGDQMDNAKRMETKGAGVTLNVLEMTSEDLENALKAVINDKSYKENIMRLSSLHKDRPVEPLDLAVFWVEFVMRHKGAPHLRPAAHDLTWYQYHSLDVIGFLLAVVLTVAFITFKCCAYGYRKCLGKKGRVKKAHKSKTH
Procedure: as §2, §3

CB1 receptors [3] = type: biochemical, mouse; conditions: 10 μM compound, 30 min at 30° C.
[4] = system: human intestinal microsomes; assay: Glucuronidation by human intestinal microsomes; type: in vitro ADME; conditions: substrate 250 μM, UDP-GlcUA 4 mM
Procedure: Glucuronidation products were analyzed by HPLC and LCMS/MS.

CB1 receptors [5] = target: T2, CB1 receptors; assay: CB1 binding, 3H-CP 55,940 displacement in mouse brain membranes; conditions: isoprenyl group and additional hydroxyl group
Procedure: as §1

T2 sequence (P47746 whole entry): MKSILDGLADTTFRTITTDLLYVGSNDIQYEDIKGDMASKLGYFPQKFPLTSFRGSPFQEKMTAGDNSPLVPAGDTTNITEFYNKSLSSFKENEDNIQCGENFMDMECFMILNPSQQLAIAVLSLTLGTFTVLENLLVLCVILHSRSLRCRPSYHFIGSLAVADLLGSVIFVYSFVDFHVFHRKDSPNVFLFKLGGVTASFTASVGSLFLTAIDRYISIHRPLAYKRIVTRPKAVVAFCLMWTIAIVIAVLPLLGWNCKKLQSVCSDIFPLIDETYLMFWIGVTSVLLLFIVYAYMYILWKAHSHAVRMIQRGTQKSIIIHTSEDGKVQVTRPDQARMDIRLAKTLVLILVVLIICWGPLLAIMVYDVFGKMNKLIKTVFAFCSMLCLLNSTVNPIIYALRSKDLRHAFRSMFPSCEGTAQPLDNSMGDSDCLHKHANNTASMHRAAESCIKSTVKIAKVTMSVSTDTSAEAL
T1 sequence (P34972 whole entry): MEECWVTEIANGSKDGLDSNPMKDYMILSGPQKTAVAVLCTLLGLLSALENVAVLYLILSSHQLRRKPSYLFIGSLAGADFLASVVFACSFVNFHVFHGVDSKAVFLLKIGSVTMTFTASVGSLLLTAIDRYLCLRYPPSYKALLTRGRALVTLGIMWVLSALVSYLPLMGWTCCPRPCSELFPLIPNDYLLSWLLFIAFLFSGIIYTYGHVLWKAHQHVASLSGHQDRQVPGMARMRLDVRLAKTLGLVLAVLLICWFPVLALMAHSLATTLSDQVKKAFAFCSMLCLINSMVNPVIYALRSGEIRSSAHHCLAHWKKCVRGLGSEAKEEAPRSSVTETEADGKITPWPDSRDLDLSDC

Molecule `O=C(O)[C@H]1O[C@@H](Oc2cc(O)cc(/C=C/c3ccc(O)c(O)c3)c2)[C@H](O)[C@@H](O)[C@@H]1O` [3-Gluc-tPice] has a Ki (human CB2) greater than 100000 nM.

Work on `O=C(O)[C@H]1O[C@@H](Oc2ccc(/C=C/c3cc(O)cc(O)c3)cc2)[C@H](O)[C@@H](O)[C@@H]1O` [4′-Gluc-rRes] yielded a Ki (human CB2) greater than 100000 nM.

In the case of `CCCCCCC(C)(C)c1ccc([C@@H]2C[C@H](O)CC[C@H]2CCCO)c(O)c1` [CP-55,940], the G-protein activity (CB1 receptors [1]; 1 μM compound, 30 min at 30° C.) is reported as “stimulated”, the “maximal response produced by CP-55,940” value (CB1 receptors [1]; CP-55,940 alone) is reported as 0.34±0.03 pmole/mg protein and the EC50 (CB1 receptors [1]; CP-55,940 alone, read-out: ED50 required to activate G-proteins) is reported as 4.3 nM.

With `O=S(=O)(O)Oc1cc(O)cc(C=Cc2ccc(O)cc2)c1` [resveratrol-3-sulfate] the “dose producing the same degree of reversal, relative to resveratrol” value [2] was 25 % of the dose of resveratrol and the renal blood flow ([2]; 2.5 mg/kg (Example 15)) was “increased blood flow”.

In the case of `CC(C)/C=C/c1c(O)cc(/C=C/c2ccc(O)cc2)cc1O` [tA3, trans-arachidin-3], the Kinetics (human UGT1A1; product 3-glucuronide (3G)) is reported as “M-M”, the Kinetics (human UGT1A1; product 4′-glucuronide (4′G)) is reported as “M-M” and the “kinetics of 4′-O-Gluc formation by UGT1A10” value (human UGT1A10) is reported as “substrate inhibition kinetics”. The Kinetics (human UGT1A10; product 4′-glucuronide (4′G)) was “USI”, the “basal G-protein activity” value (CB1 receptors [3]) was “little effect” and the EC50 (CB1 receptors [1]; in the presence of 30 μM tA-3, read-out: ED50 of CP-55,940 required to activate G-proteins) was 127 nM.

For `Oc1cc(O)cc(/C=C/c2ccc(O)c(O)c2)c1` [tPice, trans-piceatannol], the Kinetics (human UGT1A1; product 3-glucuronide (3G)) was “M-M”, the Kinetics (human UGT1A1; product 4′-glucuronide (4′G)) was “M-M” and the Kinetics (human UGT1A10; product 3-glucuronide (3G)) was “M-M”. For the same molecule, the Kinetics (human UGT1A10; product 4′-glucuronide (4′G)) was “Hill”, the “n (Hill coeff)” value (human UGT1A10; product 4′-glucuronide (4′G)) was 1.7 and the “basal G-protein activity” value (CB1 receptors [3]) was “markedly reduced”. The Ki (human CB2) was 114000 ± 7800 nM.

For trans-arachidin-1 [tA1], the “kinetics of 4′-O-Gluc formation by UGT1A10” value (human UGT1A10) was “substrate inhibition kinetics”, the Kinetics (human UGT1A10; product 4′-glucuronide (4′G)) was “USI” and the “basal G-protein activity” value (CB1 receptors [3]) was “markedly reduced”. The “maximal response produced by CP-55,940” value (CB1 receptors [1]; in the presence of 10 μM tA-1) was 0.22±0.04 pmole/mg protein, the EC50 (CB1 receptors [1]; in the presence of 10 μM tA-1, read-out: ED50 of CP-55,940 required to activate G-proteins) was 28 nM and the “production of 3G glucuronide by HIM” value [4] was “large amount”. For the same molecule, the “enhancement of binding affinity for CB1” value (CB1 receptors [5]) was 2 fold.
